In patent publication US20150320820A1, “MICROBIOCIDES FROM PLANT EXTRACTS FOR PROTECTION AGAINST HSV 2 INFECTION” (Council of Scientific and Industrial Research, priority 2012, published 2015):
Converted amounts (≈) assume the structure as drawn.

Tests used:
HSV-2 = experiment: Anti-HSV-2 plaque reduction assay in Vero cells; assay type: cell-based, Herpes Simplex Virus Type-2; details: HSV-2 plaque assay
Method: 13 wild plant species belonging to eight families Convolvulaceae (3 species), Polygonaceae (2 species), Anacardiaceae (1 species), Combretaceae (2 species), Lauraceae (1 species), Asteraceae (2 species), Zingiberaceae (1 species) and Rhamnaceae (1 species) were selected.
(§1) The methanol extracts of the plant parts and their fractions separated as less polar, medium polar and polar fractions using column chromatography or solvent separation/partitioning, were assessed for toxicity and subsequently for inhibition of HSV-2 in Vero cells by plaque reduction assay. These extracts and fractions were also tested for anti-HIV-1 activity and inhibition of other sexually transmitted pathogens like C. albicans, N gonorrhoea and H. ducreyi.

Vero cells = experiment: Cytotoxicity in Vero cells; assay type: cell-based; details: cytotoxic concentration
Method: as §1
(§2) According to Table 3, the extracts of plant species selected from the group consisting of Polygonum glabrum, Rhus mysorensis, Terminalia paniculata, Cuscuta reflexa, Terminalia crenulata, Cassytha filiformis, Scutia myrtina, were studied for cytotoxicity in Vero cells.

[1] = Cytotoxicity in Vero cells; assay type: cell-based; details: African green monkey, cytotoxic concentration
Method: as §1, §2

[2] = tested on: Haemophilus duceryi ATCC 33921; experiment: Anti-Ducreyi activity by agar disc diffusion; assay type: cell-based, Haemophilus ducreyi; details: H. duceryi ATCC 33921 (Tetracycline Sensitive); 10 μg disc, positive control
Method: A tetracycline sensitive strain of H. duceryi ([…]) was cultured on Chanchroid agar (GC agar supplemented with 2% haemoglobin, 5% FBS and 1% isovitalex and incubated at 33° C. for 72 hrs. in a candle jar with 45% moisture. The strain was identified by colony characteristics, Gram stain, growth characteristics (requirement for X and V factors) and Tween 80 hydrolysis as described earlier, and stored at −70° C. in brain heart infusion broth containing 20% glycerol.
The inoculum of each strain was prepared following the CLSI guidelines for bacteria and yeasts. The 0.5 McFarland standard inoculums (approx. 1.5×10^8 CFU/ml) of N. gonorrhoeae, H. duceryi and C. albicans were prepared from freshly grown cultures, in sterile 0.85% normal saline and mixed thoroughly. […]
The primary screening of plant extracts for activity against the three microorganisms included in the study was carried out by Kirby Baur agar disc diffusion method as described earlier. […] The discs (extract/fraction and controls) were placed on the plates previously inoculated with the respective bacterial/fungal culture, incubated as mentioned above and the zone of inhibition was recorded. […] The minimum inhibitory and minimum cidal concentrations of the extracts showing inhibition were determined using following methods.

[3] = Human alphaherpesvirus 2, Vero cells

| Molecule | IC50 (HSV-2; [3]) [µg/mL] | IC80 (HSV-2; [3]) [µg/mL] | TI (HSV-2; Therapeutic Index) | CC80 (Vero cells) [µg/mL] | CC50 [1] [µg/mL] | zone of inhibition [2] [mm] |
| --- | --- | --- | --- | --- | --- | --- |
| Nc1nc2c(ncn2COCCO)c(=O)[nH]1 [Acyclovir] | 5.6 (≈ 24.9 µM) | 2.81 (≈ 12.5 µM) | 151 | 378 (≈ 1680 µM) | 806 (≈ 3580 µM) | – |
| penicillin | – | – | – | – | – | 36 |
